Article PMC4905667, “Discovery of Small-Molecule Modulators of the Human Y4 Receptor” (PLoS ONE, 2016)
Like-named read-outs stand apart in the source and are kept apart here. Values belong to the compound of their own block, whether it stands above or below them. No end group written: not given here.

How the values were obtained:
[1] = target: T1, human Y4R (Homo sapiens, UniProt P50391); assay: Inositol phosphate (IP3) accumulation assay, Y4R stimulated with PP; assay type: cell-based; settings: for IP accumulation following stimulation of Y4R (DMSO set to 100%): 10 μM compound, 1 nM PP, COS-7 cells with Δ6Gαqi4myr, mean ± SEM, n = 2; for Effect of compound on potency (pEC50) of PP at Y4R (in words): 30 μM compound vs DMSO, full PP concentration-response; for EC50 / Y4R PAM activity, potentiation of a PP EC20 response (in words): IP accumulation; for EC50: three independent experiments in duplicate; for Y4R PAM activity, potentiation of a PP EC20 response (in words): concentration-dependent
T1 construct: expressed in transfected cells
T1 sequence (P50391 whole entry): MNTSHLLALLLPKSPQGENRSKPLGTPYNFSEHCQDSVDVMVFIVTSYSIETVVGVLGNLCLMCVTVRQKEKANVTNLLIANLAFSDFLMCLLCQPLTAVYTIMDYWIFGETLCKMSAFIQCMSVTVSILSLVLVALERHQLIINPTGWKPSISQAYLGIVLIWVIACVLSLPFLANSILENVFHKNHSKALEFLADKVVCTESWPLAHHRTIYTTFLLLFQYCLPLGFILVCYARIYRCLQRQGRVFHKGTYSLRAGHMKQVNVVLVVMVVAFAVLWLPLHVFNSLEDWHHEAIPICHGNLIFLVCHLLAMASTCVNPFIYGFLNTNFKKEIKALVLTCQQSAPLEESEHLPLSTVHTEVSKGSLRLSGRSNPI
Experimental: (§1) COS-7 cells stably expressing hY1/2/4/5R_eYFP fusion protein and the Δ6Gαqi4myr chimeric Gα-protein were prepared as previously described. The hY1/2/4/5R_eYFP cDNA was subcloned into MCS1 of a pVitro2-MCS vector carrying a hygromycin resistance gene; the Δ6Gαqi4myr cDNA was subcloned into MCS1 of a pVitro2-MCS vector carrying a G418 resistance gene (Invivogen, San Diego, CA).
(§2) COS-7 (African Green Monkey kidney) cells stably expressing the hY1/2/4/5R_eYFP fusion protein and the Δ6Gαqi4myr chimeric Gα-protein were cultured at 37°C in high glucose Dulbecco’s Modified Eagle Medium (DMEM, Life Technologies, Carlsbad, CA) with glutamine and sodium pyruvate (Life Technologies/Lonza) supplemented with 10% (w/v) FBS (Invitrogen, Carlsbad, CA), 1.5 mg/mL G418-sulfate (Amresco, Solon, OH) and 133 μg/ml hygromycin (Invivogen).
(§3) Cells were seeded into 48-well plates and incubated for 24 hours at 37°C / 5% CO2. Afterwards, cells were labeled for at least 16 hours in DMEM+10% (w/v) FBS containing 2 μCi/ml myo-[2- ^3H(N)]-inositol (PerkinElmer) at 37°C / 5% CO2. Labeling solution was aspirated and cells were washed with 20 μL/well DMEM + 10 mM LiCl (Sigma-Aldrich; DMEM/LiCl) and stimulated with the peptide solutions and compounds. Specifically, 50 μl/well DMEM/LiCl were added after washing, followed by addition of 50 μl/well test compound in DMEM/LiCl (3-fold over the final concentration) and addition of 50 μl/well peptide solution (3-fold over the final concentration) in DMEM/LiCl. Stimulation was performed for 2 hours at 37°C / 5% CO2. Cell lysis, subsequent sample preparation and radiometric detection was performed as described previously.
(§4) Data analysis was performed with GraphPad Prism 5.03 software (GraphPad Software, San Diego, CA). Calculation of EC50 and pEC50 was performed using standard non-linear regression (log(agonist) vs. response, three parameters). All data were normalized to the corresponding control curve in the absence of the modulator. Final concentration response curves were created by calculating the mean and SEM of all individual experiments for each data point. Statistical evaluation was performed using two-way ANOVA and Bonferroni post test with * P ≤ 0.05, ** P ≤ 0.01, *** P ≤ 0.001.
(§5) Until now, no small molecule agonists of Y receptors have been described. Based on this lack of any structure activity data, identification of Y4R PAMs was initiated with a Ca^2+-flux-based HTS approach. An initial pilot screen was performed with the ‘Spectrum collection’, a small scale library with 2000 compounds comprising synthetic small molecules as well as purified natural products covering a range of known biologically active properties. This pilot screen yielded 65 putative PAMs. All initial hits were retested for off-target effects in wildtype COS-7 cells and the PAM effect was validated via concentration-dependent potentiation of a submaximal PP response. After eliminating structures that show off-target effects, seven compounds with potencies in the micromolar range were identified (S1 Fig) for further investigation. Validation of the Y4R PAM activity was performed with a well-established assay system for Y receptor activation studies, based on cellular accumulation of inositol phosphate. Furthermore, the compound activity at Y1R, Y2R and Y5R was examined at this stage of Y4R PAM identification. Therefore, Y receptor activation with an agonist ligand concentration causing a submaximal response (1 nM, Fig 1) was monitored in presence and absence of test compound. This experimental setup allows the detection of potential compound-induced shifts of the concentration-response curve and parallel testing of all compounds on all Y receptor subtypes. […]

[2] = system: T2, human Y5R; assay: Inositol phosphate (IP3) accumulation assay, Y5R stimulated with NPY; assay type: cell-based; settings: for Effect of compound on potency (pEC50) of NPY at Y5R (in words): 30 μM compound vs DMSO, full NPY concentration-response
T2 construct: expressed in transfected cells
Experimental: as §1, §2, §3, §4
as §5, with “Furthermore, the compound activity at Y1R, Y2R and Y5R was examined at this stage of Y4R PAM identification.” left out, “compound.” for “compound. This experimental setup allows the detection of potential compound-induced shifts of the concentration-response curve and parallel testing of all compounds on all Y receptor subtypes.”

[3] = system: T3, human Y2R; assay: Inositol phosphate (IP3) accumulation assay, Y2R stimulated with NPY; assay type: cell-based; settings: for Effect of compound on potency (pEC50) of NPY at Y2R (in words): 30 μM compound vs DMSO, full NPY concentration-response
T3 construct: expressed in transfected cells
Experimental: as §1, §2, §3, §4, §5

[4] = system: T4, human Y1R; assay: Inositol phosphate (IP3) accumulation assay, Y1R stimulated with NPY; assay type: cell-based; settings: for Effect of compound on potency (pEC50) of NPY at Y1R (in words): 30 μM compound vs DMSO, full NPY concentration-response
T4 construct: expressed in transfected cells
Experimental: as §1, §2, §3, §4, §5

[5] = HPLC analysis of stability in DMEM assay conditions; assay type: physicochemical; settings: pre-incubated in DMEM for 2 hours at 37°C
Experimental: Supplementary file pone.0157146.s003.png: S3 Fig HPLC analysis of VU0118748 stability in DMEM assay conditions. […] To test the stability of VU0118748 in the assay conditions, the compound was pre-incubated in DMEM for 2 hours at 37°C. […] (PNG) Click here for additional data file.

[6] = system: db/db mice and high fat diet induced obesity in mice; set-up: method as in PMID 25282357; settings: fed to mice, high nanomolar blood concentrations; cited from earlier work
[7] = system: T5, Y4R; assay: HTS calcium flux assay; assay type: cell-based, human; settings: Ca2+ flux, COS-7 hY4R_eYFP Δ6Gαqi4myr
T5 construct: expressed in transfected cells
Experimental: as §1, §2
The purities of compounds in the Vanderbilt HTS facility are more than 95% as confirmed by the supplier. A total of 35,288 compounds were tested for their ability to modulate the Y4R activation in conjunction with the Vanderbilt HTS facility. In a pilot HTS experiment, 2000 compounds (spectrum collection, MicroSource Discovery Systems, Inc., Gaylordsville, CT) were screened for modulation of the Y4R. […]

[8] = read-out: EC50, potentiation of a PP EC20 response at Y4R
[9] = 10 μM compound, 1 nM NPY, mean ± SEM, n = 2
[10] = read-out: pEC50 ± SEM, potentiation of a PP EC20 response at Y4R (converted)

IP accumulation following stimulation of Y4R (DMSO set to 100%) [1]: 185.7 ± 23.5%
Effect of compound on potency (pEC50) of PP at Y4R (in words) [1]: increase the potency of PP
EC50 [1, 8]: 620 nM
Increase in the potency of PP at Y4R (EC50 shift) ([1]; in presence of compound): 4 fold
Effect of compound on potency (pEC50) of NPY at Y5R (in words) [2]: negative allosteric effect
Effect of compound on potency (pEC50) of NPY at Y2R (in words) [3]: no effect
Effect of compound on potency (pEC50) of NPY at Y1R (in words) [4]: small PAM effect
Compound: O=C(Nc1ccc([N+](=O)[O-])cc1Cl)c1cc(Cl)ccc1O [Niclosamide, reference compound]
IP accumulation following stimulation of Y5R (DMSO set to 100%) [2, 9]: 83.4 ± 5.9%
IP accumulation following stimulation of Y2R (DMSO set to 100%) [3, 9]: 88.5 ± 6.2%
IP accumulation following stimulation of Y1R (DMSO set to 100%) [4, 9]: 125.4 ± 14.6%

Compound: O=C(Nc1ccc([N+](=O)[O-])cc1)c1cc(Br)ccc1O [VU0048913]
Effect of compound on potency (pEC50) of PP at Y4R (in words) [1]: increase the potency of PP
EC50 [1, 8]: 566 nM
EC50 [1, 10]: 575 nM
Effect of compound on potency (pEC50) of NPY at Y2R (in words) [3]: slight PAM effect
Effect of compound on potency (pEC50) of NPY at Y1R (in words) [4]: no effect

Effect of compound on potency (pEC50) of PP at Y4R (in words) [1]: increase the potency of PP
EC50 [1, 8]: > 10000 nM
Effect of compound on potency (pEC50) of NPY at Y2R (in words) [3]: slight PAM effect
Effect of compound on potency (pEC50) of NPY at Y1R (in words) [4]: no effect
Compound: Cc1ccc(NC(=O)c2cc([N+](=O)[O-])ccc2O)cc1 [VU0048992]

Effect of compound on potency (pEC50) of PP at Y4R (in words) [1]: increase the potency of PP
EC50 [1, 8]: > 10000 nM
Effect of compound on potency (pEC50) of NPY at Y1R (in words) [4]: no effect
Compound: O=C(Nc1ccc(Cl)cc1)c1cc([N+](=O)[O-])ccc1O [VU0049150]

Y4R PAM activity, potentiation of a PP EC20 response (in words) [1]: inactive
Effect of compound on potency (pEC50) of NPY at Y2R (in words) [3]: slight PAM effect
Compound: O=C(Nc1cc(C(F)(F)F)ccc1Cl)c1ccc(F)c([N+](=O)[O-])c1 [VU0114795]

Compound: O=C(Oc1ccc(Cl)cc1C(=O)Nc1ccc([N+](=O)[O-])cc1Cl)c1ccc([N+](=O)[O-])cc1 [VU0118748]
Effect of compound on potency (pEC50) of PP at Y4R (in words) [1]: increase the potency of PP
EC50 [1, 8]: 473 nM
EC50 [1, 10]: 437 nM
Effect of compound on potency (pEC50) of NPY at Y5R (in words) [2]: negative allosteric effect
Effect of compound on potency (pEC50) of NPY at Y1R (in words) [4]: no effect
Compound still intact [5]: 95%

Compound: COc1ccc(/C=C/C(=O)c2ccc(O)cc2O)cc1OC [VU0244224]
IP accumulation following stimulation of Y4R (DMSO set to 100%) [1]: 127 ± 19%
Effect on Y5R signal transduction (in words) ([2]; 10 μM compound, 1 nM NPY): no effects
Effect on Y2R signal transduction (in words) ([3]; 10 μM compound, 1 nM NPY): no effects
Effect on Y1R signal transduction (in words) ([4]; 10 μM compound, 1 nM NPY): no effects

Y4R PAM activity, potentiation of a PP EC20 response (in words) [1]: inactive
Compound: O=C(Nc1ccc([N+](=O)[O-])cc1Cl)c1ccncc1 [VU0357475]

IP accumulation following stimulation of Y4R (DMSO set to 100%) [1]: 120 ± 11%
Compound: Nc1ncnc2c1ncn2[C@@H]1O[C@H](CO)[C@@H](O)[C@H]1O [adenosine, reference compound]
Effect on Y5R signal transduction (in words) ([2]; 10 μM compound, 1 nM NPY): slightly decrease
Effect on Y1R signal transduction (in words) ([4]; 10 μM compound, 1 nM NPY): slightly decrease

Compound: NCCO.O=C(Nc1ccc([N+](=O)[O-])cc1Cl)c1cc(Cl)ccc1O [ethanolamine salt form of Niclosamide]
Efficacy on diabetic symptoms (plasma insulin decline, insulin response, high fat diet induced obesity) [6]: efficacious

Compound: pancreatic polypeptide (APLEPVYPGDNATPEQMAQYAADLRRYINMLTRPRY; ends and bridges not checked; UniProt P01298 30-65, looked up) [PP, native peptide ligand of the Y4R]
PP EC20 [7]: 0.055 ± 0.027 nM
PP EC80 [7]: 0.836 ± 0.033 nM
